Experiment: Strength and degradation profile of tigecycline 20 mg/mL bulk solutions by reversed phase HPLC (effect of temperature, time, pH, dissolved oxygen; Runs A to O)
Format: physicochemical
Conditions: 20 mg/mL
Protocol: The contents of the sample vials are dissolved in diluent. The sample solution is diluted, if necessary, and chromatographed on a reversed phase column using gradient elution. Impurities are determined by comparing the impurity peak areas in the sample preparation chromatogram to the average area of tigecycline peaks in the standard preparation chromatograms obtained concomitantly.
Chromatographic Column—Length about 15 cm, inside diameter about 4.6 mm, packed with Inertsil ODS2, 5 μm size particles or equivalent.
Detector—Ultraviolet spectrophotometric detector capable of operating at 248 nm with a sensitivity of about 0.5 absorbance units full scale.
The results of additional studies to investigate the effect of processing parameters such as temperature, time, and dissolved oxygen content on the purity profile of tigecycline solutions using the following materials, methods and procedures are presented in Tables A to O.
The experiments were run in plastic glove bags under normal laboratory light conditions. Plastic glove boxes will be used to control the headspace of the beakers. The batch size was 200 mL. • 1. Prepare the glove bag with a mixture of nitrogen and air to achieve an oxygen level in the solution as per the design. • 2. Place the jacketed beaker on the magnetic stirrer. Connect it to the cooler. Set the cooler to the desired set point. • 3. Add 200 mL of SWFI in to the beaker. Allow equilibrating. Measure the temperature and oxygen content. When it reaches the desired condition, add accurately weighed API and mix until dissolved. If necessary use spatula to aid dissolution. For pH adjustments, use 4 mL of either 0.1N NaOH or 0.1N HCl and 196 mL of WFI for manufacture. • 4. After complete dissolution, Transfer about 5.5 mL of Solution in vials and stopper them. These vials will be stoppered at the appropriate headspace conditions. Place the vials in appropriate temperature conditions. • 5. Sample the vials at 1, 4, 8, 10, 12 and 24 hours. Send the samples for analysis. Freeze the 10, 12 and 24 samples at −20° C. for analysis the following day. • 6. Measure pH and record color of the solution at each time point. Results
The 1-hour samples were taken directly from the beakers. Samples for later time points were collected in stoppered vials processed in the atmosphere of the bag in order to simulate the headspace conditions then placed in water baths or refrigerator to maintain there respective temperature conditions. This was done to maintain safety in the lab. Disposable plastic glove bags require constant flow of a mixture of nitrogen and air to maintain headspace oxygen level that will result in the desired dissolved oxygen (DO) content in the sample. The pH of samples was measured at each sample points.
Strength and degradation profile was analyzed by HPLC as described above. […] Degradation was slightly higher at higher temperature condition.

[1] = Run #F, 2° C., hours 1,4,8,12,24 at r5-r9, 8 h after preparation
[2] = Run #F, 2° C., hours 1,4,8,12,24 at r5-r9, 12 h after preparation
[3] = Run #F, 2° C., hours 1,4,8,12,24 at r5-r9, 24 h after preparation
[4] = Run #G, 5° C., hours 1,4,8,12,24 at r6-r10, after 4 hours
[5] = Run #G, 5° C., hours 1,4,8,12,24 at r6-r10, after 24 hours
[6] = Run #G, 5° C., hours 1,4,8,12,24 at r16-r20, after 1 hours
[7] = Run #G, 5° C., hours 1,4,8,12,24 at r16-r20, after 4 hours
[8] = Run #G, 5° C., hours 1,4,8,12,24 at r16-r20, after 8 hours
[9] = Run #G, 5° C., hours 1,4,8,12,24 at r16-r20, after 12 hours
[10] = Run #G, 5° C., hours 1,4,8,12,24 at r16-r20, after 24 hours
[11] = Run #H, 5° C., pH 7.9, Oxygen 1.0 mg/L, hours 1,4,8,10,12,24 at r6-r11
[12] = Run #H, 5° C., pH 7.9, Oxygen 1.0 mg/L, hours 1,4,8,10,12,24 at r6-r11, 1 h

In the case of CN(C)c1cc(NC(=O)CNC(C)(C)C)c(O)c2c1C[C@H]1C[C@H]3[C@H](N(C)C)C(O)=C(C(N)=O)C(=O)[C@@]3(O)C(O)=C1C2=O [Tigecycline], the “RRT 1.45” value [1] is reported as 0.09%, the “RRT 1.85 MW = 597” value [1] is reported as 0.08% and the Total [1] is reported as 1.00%. For the same compound, the “RRT 0.74 Epimer” value [2] was 0.18%, the “RRT 1.45” value [2] was 0.08% and the Total [2] was 1.07%. The “RRT 0.74 Epimer” value [3] was 0.19%, the Total [3] was 1.43% and the Strength (Run #G, 5° C., Oxygen = 1.0 mg/mL, hours 1,4,8,12,24 at r6-r10, after 1 hours) was 18.577 mg/mL. The Strength (Run #G, 5° C., Oxygen = 1.0 mg/mL, hours 1,4,8,12,24 at r6-r10, after 4 hours) was 18.694 mg/mL, the Strength (Run #G, 5° C., Oxygen = 1.0 mg/mL, hours 1,4,8,12,24 at r6-r10, after 8 hours) was 18.487 mg/mL and the Strength (Run #G, 5° C., Oxygen = 1.0 mg/mL, hours 1,4,8,12,24 at r6-r10, after 12 hours) was 18.507 mg/mL. The Strength (Run #G, 5° C., Oxygen = 1.0 mg/mL, hours 1,4,8,12,24 at r6-r10, after 24 hours) was 18.587 mg/mL, the “RRT 1.67 MW = 556” value (Run #G, 5° C., Oxygen = 1.0 mg/mL, hours 1,4,8,12,24 at r16-r20, after 1 hours) was 0.08% and the “RRT 1.67 MW = 556” value (Run #G, 5° C., Oxygen = 1.0 mg/mL, hours 1,4,8,12,24 at r16-r20, after 4 hours) was 0.14%. The “RRT 1.67 MW = 556” value (Run #G, 5° C., Oxygen = 1.0 mg/mL, hours 1,4,8,12,24 at r16-r20, after 8 hours) was 0.17%, the “RRT 1.67 MW = 556” value (Run #G, 5° C., Oxygen = 1.0 mg/mL, hours 1,4,8,12,24 at r16-r20, after 12 hours) was 0.20% and the “RRT 1.67 MW = 556” value (Run #G, 5° C., Oxygen = 1.0 mg/mL, hours 1,4,8,12,24 at r16-r20, after 24 hours) was 0.23%. For the same compound, the “RRT 0.74 Epimer” value (Run #G, 5° C., hours 1,4,8,12,24 at r6-r10, after 1 hours) was 0.16%, the “RRT 0.58” value [4] was 0.07% and the “RRT 0.74 Epimer” value [4] was 0.17%. For the same compound, the “RRT 0.74 Epimer” value (Run #G, 5° C., hours 1,4,8,12,24 at r6-r10, after 8 hours) was 0.18%, the “RRT 0.74 Epimer” value (Run #G, 5° C., hours 1,4,8,12,24 at r6-r10, after 12 hours) was 0.20% and the “RRT 0.58” value [5] was 0.08%. The “RRT 0.74 Epimer” value [5] was 0.21%, the “RRT 1.45” value [6] was 0.08% and the “RRT 1.64 Mino” value [6] was 0.11%. For the same compound, the “RRT 1.85 MW = 597” value [6] was 0.08%, the Total [6] was 0.58% and the “RRT 1.64 Mino” value [7] was 0.07%. The Total [7] was 0.78%, the “RRT 1.45” value [8] was 0.07% and the “RRT 1.85 MW = 597” value [8] was 0.09%. For the same compound, the Total [8] was 1.12%, the “RRT 1.45” value [9] was 0.09% and the Total [9] was 1.34%. The “RRT 1.85 MW = 597” value [10] was 0.10%, the Total [10] was 2.09% and the “RRT 0.58” value [11] was 0.09%. For the same compound, the “RRT 0.64 9-Amino” value [11] was “BRL (BRL means below reporting limit (meaning less than 0.05% of tigecycline peak))”, the “RRT 0.74 Epimer” value [12] was 0.19% and the Strength [12] was 19.457 mg/mL.

Source: patent US20070026080A1, “Manufacturing process for tigecycline” (Wyeth, priority 2005, published 2007)
